Series [1] has as its system human B cell lymphoma cell line. The series can be described thus: Dual laser flow cytometry of DRAQ5NO with Annexin V-FITC (Cytometer D). The following applies: 50 μM DRAQ5NO, 633 nm excitation, FL4-H. Format: cell-based. From the text:
The system was a FACS Vantage cell sorter (Becton Dickinson Inc., Cowley, UK) incorporating a Coherent Enterprise II laser simultaneously emitting at multiline UV (350-360 nm range) and 488 nm wavelengths with the beams made non-colinear using dichroic separators. Beam-combining optics were used to align the UV beam with that emitted by a Spectra Physics 127-35 helium-neon laser (max 35 mW output) emitting at 633 nm with a temporal separation of about 25 μsec from that of the primary 488 nm beam. Forward light scatter, 90° light scatter and fluorescence emissions were collected for 1×10^4 cells using the forward light scatter parameter as the master signal from the primary 488 nm beam, while side scatter was collected through a 488/10 nm bandpass filter. The analysis optics were: i) primary beam-originating signals analysed at FL1 (FITC filter; barrier filter of 530/30 nm) after transmission at SP610 and SP560 dichroics, or at FL2 (barrier filters of 585/42 nm or 575/26 nm) after transmission at SP610 and reflection at SP560 dichroics, or at FL3 (barrier filter of LP715 nm) after reflection at a SP610 dichroic; ii) delayed beam-originating signals analysed at FL4 (barrier filter of LP695 nm) or at FL5 (barrier filter of DF424/44 nm) after transmission or reflection at a LP640 dichroic respectively. Forward and 90° light scatter, were analysed to exclude any cell debris. […]
Background: Flow cytometry measures light scatter and fluorescence of single cells or particles in a stream.

For series [2] the following is noted: previously published spectra, normalised; cited from earlier work.
Series [3] in a line: Spectral analysis: absorbance and fluorescence spectra. The format is physicochemical. The following applies: DNA binding buffer, emission 530 nm. As to the method: Absorbance spectra were obtained using a Perkin-Elmer Lambda 16 UV spectrometer and a 10 μM solution of agent dissolved in dichloromethane and measured in a 1 cm path length quartz-silica cuvette. Fluorescence spectra for a 0.8 ml solution of 20 μM DRAQ5 in a 1 cm path length semi-micro quartz silica cuvette were determined by exciting at 647 nm wavelength or monitoring emission at 670 nm wavelength. Fluorescence measurements were made on a Perkin Elmer LS50 spectrofluorometer with slit widths set at 10 nm. The spectrofluorometer was equipped with a red-sensitive photomultiplier tube (PMT; type R928; Hamamatsu Photonics KK, Japan). Data were accumulated for four scans for each condition and exported into a spreadsheet program to correct values for the buffer control and to determine emission maxima. DNA-DRAQ5 fluorescence was measured by the addition of microlitre volumes of concentrated calf thymus DNA solutions to the cuvette with mixing. Both agent and DNA were prepared in DNA binding buffer (0.05 M sodium phosphate, pH 6.2, 0.05 M NaCl, 0.001 M EDTA; 3). The spectra shown were corrected for the buffer background and not for the spectral sensitivity of the PMT. Rhodamine 123 spectra were generated in DNA binding buffer using either 488/5 nm excitation or monitoring emission at 530/5 nm. […]

Read-outs that look alike come from different tables or passages of the source.

Take `C[N+](C)([O-])CCNc1ccc(O)c2c1C(=O)c1c(O)ccc(NCC[N+](C)(C)[O-])c1C2=O` [DRAQ5N]: in series [1], the “level of DRAQ5NO staining in stage 1 populations (intact viable cells)” value is given as “low level” and the “level of DRAQ5NO staining in stage 3 cells (late stage apoptotic/dead cells)” value is listed as “increased level”.

In the case of Texas Red, in series [2], the Exλmax is reported as 596 nm. In the case of fluorescein isothiocyanate [FITC], the Exλmax in series [2] is given as 490 nm. In turn, rhodamine 123 came in with an Exλmax in series [3] of 511 nm.

(Values after patent US7605280B2, “Anthraquinone and its derivatives” (Biostatus Limited, priority 1998, dated 2009).)
